{"source": "patent US5578445A", "about": "“In vitro method of evaluating the effects of a substance” (priority 1991, dated 1996)", "key": {"MCF7": {"tested_on": "MCF7", "experiment": "Proliferation, amount of ATP after 6 days, MCF7"}, "estrogen receptor [1]": {"target": "T1, estrogen receptor (Homo sapiens, UniProt P03372)", "T1 sequence (P03372 1-595)": "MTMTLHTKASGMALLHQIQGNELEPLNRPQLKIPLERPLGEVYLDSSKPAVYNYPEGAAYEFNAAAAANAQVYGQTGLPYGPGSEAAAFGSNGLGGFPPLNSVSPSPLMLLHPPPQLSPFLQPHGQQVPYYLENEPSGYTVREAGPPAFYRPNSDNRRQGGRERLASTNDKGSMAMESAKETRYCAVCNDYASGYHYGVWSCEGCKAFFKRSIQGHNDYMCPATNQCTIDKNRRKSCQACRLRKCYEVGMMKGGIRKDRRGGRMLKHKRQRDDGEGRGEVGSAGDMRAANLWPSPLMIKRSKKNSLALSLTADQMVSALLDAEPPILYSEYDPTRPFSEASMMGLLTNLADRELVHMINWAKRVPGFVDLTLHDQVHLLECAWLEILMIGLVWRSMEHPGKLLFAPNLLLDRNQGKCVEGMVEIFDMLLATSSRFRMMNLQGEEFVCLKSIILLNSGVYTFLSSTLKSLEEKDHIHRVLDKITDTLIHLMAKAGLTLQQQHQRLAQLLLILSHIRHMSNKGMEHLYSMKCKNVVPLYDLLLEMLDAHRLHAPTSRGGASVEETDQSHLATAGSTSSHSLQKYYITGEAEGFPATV", "experiment": "pS2 secretion, additional set of experiments, ZR 75-1 in 96-well trays, pS2 RIA", "conditions": "for relative amount of pS2 (no hormone added = 1): zr 75-1 cells, 48 h", "method": "(§1) The amount of pS2 secreted into the medium was determined with the aid of a commercial RIA (ELSA pS2 from CIS Bioindustries, Gif-sur-Yvette, France).\n(§2) Samples of the cells ZR 75-1 and MCF7, respectively, were distributed into plastic petridishes (suitable for the culturing of mammalian cells).\n(§3) Samples of the cells ZR 75-1 ([…]) and MCF7 (2.5×10^4 cells/well), respectively, were distributed in 96-well trays. The cells were distributed in the same medium as used on day 1.\n(§4) The wells were washed with 100 μl Coon's medium/well. The first medium was replaced by the second medium (B) without 1% FCS. The following hormone additions were made:\n(§5) 48 hours after the hormone addition the number of cells and their morphology were investigated. Medium from each well was transferred to Eppendorf tubes. The possible amount of pS2 in the medium samples was analyzed with the aid of a commercial pS2 RIA (ELSA pS2 )."}, "estrogen receptor [2]": {"target": "T1, estrogen receptor", "experiment": "pS2 secretion, additional set of experiments, MCF7 in 96-well trays, pS2 RIA", "conditions": "for relative amount of pS2 (no hormone added = 1): mcf7 cells, 48 h", "method": "as §1, §2, §3, §4, §5"}, "ZR 75-1": {"tested_on": "ZR 75-1", "experiment": "Proliferation, amount of ATP after 6 days, ZR 75-1", "format": "cell-based, human", "method": "The growth is determined by measuring the amount of ATP in the cells after incubation with ligands for 6 days. […]\nSamples of the cells ZR 75-1 (8000 cells/well) and MCF7 (4000 cells/well), respectively, were distributed into microtiter plates having 96 wells.\nThe following hormone additions were made:\nThe medium was replaced by fresh medium of the same composition as on day 6, and hormone additions as on day 6.\n6 days after hormone addition the number of cells and their morphology were investigated. Medium from each well was poured off. To each well was added 100 μl 1% TCA (trichloro acetic acid)."}, "estrogen receptor [3]": {"target": "T1, estrogen receptor", "experiment": "Cathepsin D secretion, additional set of experiments, ZR 75-1 in 96-well trays, Cath D RIA", "method": "(§6) The amount of Cath D secreted into the medium was determined with the aid of a commercial RIA (ELSA-CATD-D from CIS Bio-industries, Gif-sur-Yvette, France).\nas §2\n(§7) Samples of the cells ZR 75-1 (4×10^4 cells/well) and MCF7 (2.5×10^4 cells/well), respectively, were distributed in 96-well trays. The cells were distributed in the same medium as used on day 1.\nas §4\n(§8) 48 hours after the hormone addition the number of cells and their morphology were investigated. Medium from each well was transferred to Eppendorf tubes. The possible amount of Cath D in the medium samples was analyzed with the aid of a commercial Cath D RIA (ELSA-CATH-D)."}, "estrogen receptor [4]": {"target": "T1, estrogen receptor", "experiment": "Cathepsin D secretion, additional set of experiments, MCF7 in 96-well trays, Cath D RIA", "method": "as §6, §2, §7, §4, §8"}, "[5]": {"conditions": "ZR-75-1, 48 h, read-out: relative amount of pS2 (no hormone added = 1)"}, "[6]": {"conditions": "MCF7, 48 h, read-out: relative amount of pS2 (no hormone added = 1)"}, "[7]": {"conditions": "10^-8 M LY 117018, presence of 10^-10 M E2"}}}
{"smiles": "O=C(c1ccc(OCCN2CCCC2)cc1)c1c(-c2ccc(O)cc2)sc2cc(O)ccc12", "note": "[LY 117018]", "values": [{"measurement": "activity at 1 µM", "setting": "MCF7; Homo sapiens, MCF7, 144 h, read-out: relative amount of ATP (no hormone added = 1), MCF7, + 10^-6 M LY 117018, -E2, 6 days", "value": 27, "unit": "%"}, {"measurement": "activity at 0.1 µM", "setting": "MCF7; Homo sapiens, MCF7, 144 h, read-out: relative amount of ATP (no hormone added = 1), MCF7, + 10^-7 M LY 117018, -E2, 6 days", "value": 89, "unit": "%"}, {"measurement": "activity at 0.01 µM", "setting": "MCF7; Homo sapiens, MCF7, 144 h, read-out: relative amount of ATP (no hormone added = 1), MCF7, + 10^-8 M LY 117018, -E2, 6 days", "value": 89, "unit": "%"}, {"measurement": "activity at 0.001 µM", "setting": "MCF7; Homo sapiens, MCF7, 144 h, read-out: relative amount of ATP (no hormone added = 1), MCF7, + 10^-9 M LY 117018, -E2, 6 days", "value": 85, "unit": "%"}, {"measurement": "inhibition of growth", "setting": "MCF7; MCF7, 0.1 nM E2 and 10 nM LY 117018", "value": "inhibited down to the same level as in the absence of added hormone"}, {"measurement": "function on growth", "setting": "MCF7; MCF7, 10^-7 M LY 117018, presence of 10^-10 M E2", "value": "functions as an antagonist"}, {"measurement": "antagonist strength compared with Tamoxifen, growth", "setting": "MCF7; MCF7, presence of 0.1 nM E2", "value": "stronger antagonist than Tamoxifen"}, {"measurement": "inhibition of the expression of pS2", "setting": "estrogen receptor [1]; ZR 75-1, 10 nM LY 117018 and 0.1 nM E2", "value": "inhibited down to the same level as in the absence of added hormone"}, {"measurement": "function on pS2 expression", "setting": "estrogen receptor [1]; ZR 75-1, 10^-8 M LY 117018, presence of 10^-10 M E2", "value": "functions as an antagonist"}, {"measurement": "antagonist strength compared with Tamoxifen, pS2", "setting": "estrogen receptor [1]; ZR 75-1, presence of 0.1 nM E2", "value": "stronger antagonist than Tamoxifen"}, {"measurement": "influence on the pS2 secretion", "setting": "estrogen receptor [1]; ZR 75-1, substance alone, without E2", "value": "do not have an influence"}, {"measurement": "fold induction at 0.001 µM", "setting": "estrogen receptor [1]; [5]", "value": 0.9}, {"measurement": "fold induction at 0.01 µM", "setting": "estrogen receptor [1]; [5]", "value": 0.86}, {"measurement": "fold induction at 0.1 µM", "setting": "estrogen receptor [1]; [5]", "value": 0.78}, {"measurement": "fold induction at 1 µM", "setting": "estrogen receptor [1]; [5]", "value": 0.75}, {"measurement": "relative amount of pS2 (no hormone added = 1)", "setting": "estrogen receptor [1]; 0.001 µM", "value": 1.96}, {"measurement": "relative amount of pS2 (no hormone added = 1)", "setting": "estrogen receptor [1]; 0.01 µM", "value": 0.84}, {"measurement": "relative amount of pS2 (no hormone added = 1)", "setting": "estrogen receptor [1]; 0.1 µM", "value": 0.91}, {"measurement": "relative amount of pS2 (no hormone added = 1)", "setting": "estrogen receptor [1]; 1 µM", "value": 0.83}, {"measurement": "fold induction at 0.001 µM", "setting": "estrogen receptor [2]; [6]", "value": 0.89}, {"measurement": "fold induction at 0.01 µM", "setting": "estrogen receptor [2]; [6]", "value": 1}, {"measurement": "fold induction at 0.1 µM", "setting": "estrogen receptor [2]; [6]", "value": 0.93}, {"measurement": "fold induction at 1 µM", "setting": "estrogen receptor [2]; [6]", "value": 1}, {"measurement": "inhibition of the expression of pS2", "setting": "estrogen receptor [2]; MCF7, 10 nM LY 117018 and 0.1 nM E2", "value": "inhibited down to the same level as in the absence of added hormone"}, {"measurement": "function on pS2 expression", "setting": "estrogen receptor [2]; MCF7, 10^-8 M LY 117018, presence of 10^-10 M E2", "value": "functions as an antagonist"}, {"measurement": "antagonist strength compared with Tamoxifen, pS2", "setting": "estrogen receptor [2]; MCF7, presence of 0.1 nM E2", "value": "stronger antagonist than Tamoxifen"}, {"measurement": "influence on the pS2 secretion", "setting": "estrogen receptor [2]; MCF7, substance alone, without E2", "value": "do not have an influence"}, {"measurement": "relative amount of pS2 (no hormone added = 1)", "setting": "estrogen receptor [2]; 0.001 µM", "value": 2.01}, {"measurement": "relative amount of pS2 (no hormone added = 1)", "setting": "estrogen receptor [2]; 0.01 µM", "value": 1.11}, {"measurement": "relative amount of pS2 (no hormone added = 1)", "setting": "estrogen receptor [2]; 0.1 µM", "value": 1.19}, {"measurement": "relative amount of pS2 (no hormone added = 1)", "setting": "estrogen receptor [2]; 1 µM", "value": 1.18}, {"measurement": "inhibition of growth", "setting": "ZR 75-1; 0.1 nM E2 and 10 nM LY 117018", "value": "inhibited down to the same level as in the absence of added hormone"}, {"measurement": "function on growth", "setting": "ZR 75-1; 10^-7 M LY 117018, presence of 10^-10 M E2", "value": "functions as an antagonist"}, {"measurement": "activity at 1 µM", "setting": "ZR 75-1; Homo sapiens, ZR-75-1, 144 h, + 10^-6 M LY 117018, -E2, 6 days, read-out: relative amount of ATP (no hormone added = 1)", "value": 69, "unit": "%"}, {"measurement": "activity at 0.1 µM", "setting": "ZR 75-1; Homo sapiens, ZR-75-1, 144 h, + 10^-7 M LY 117018, -E2, 6 days, read-out: relative amount of ATP (no hormone added = 1)", "value": 99, "unit": "%"}, {"measurement": "activity at 0.01 µM", "setting": "ZR 75-1; Homo sapiens, ZR-75-1, 144 h, + 10^-8 M LY 117018, -E2, 6 days, read-out: relative amount of ATP (no hormone added = 1)", "value": 89, "unit": "%"}, {"measurement": "activity at 0.001 µM", "setting": "ZR 75-1; Homo sapiens, ZR-75-1, 144 h, + 10^-9 M LY 117018, -E2, 6 days, read-out: relative amount of ATP (no hormone added = 1)", "value": 103, "unit": "%"}, {"measurement": "antagonist strength compared with Tamoxifen, growth", "setting": "ZR 75-1; presence of 0.1 nM E2", "value": "stronger antagonist than Tamoxifen"}, {"measurement": "inhibition of the expression of Cath D", "setting": "estrogen receptor [3]; 10 nM LY 117018 and 0.1 nM E2", "value": "inhibited down to same level as in the absence of added hormone"}, {"measurement": "function on Cath D expression", "setting": "estrogen receptor [3]; [7]", "value": "functions as an antagonist"}, {"measurement": "antagonist strength compared with Tamoxifen, Cath D", "setting": "estrogen receptor [3]; presence of 0.1 nM E2", "value": "stronger antagonist than Tamoxifen"}, {"measurement": "influence on the Cath D secretion", "setting": "estrogen receptor [3]; substance alone, without E2", "value": "do not have an influence"}, {"measurement": "inhibition of the expression of Cath D", "setting": "estrogen receptor [4]; 10 nM LY 117018 and 0.1 nM E2", "value": "inhibited down to same level as in the absence of added hormone"}, {"measurement": "function on Cath D expression", "setting": "estrogen receptor [4]; [7]", "value": "functions as an antagonist"}, {"measurement": "antagonist strength compared with Tamoxifen, Cath D", "setting": "estrogen receptor [4]; presence of 0.1 nM E2", "value": "stronger antagonist than Tamoxifen"}, {"measurement": "influence on the Cath D secretion", "setting": "estrogen receptor [4]; substance alone, without E2", "value": "do not have an influence"}]}
